# US20240287138A1, “CYCLIC PEPTIDES FOR INHIBITING TNF RECEPTOR 1 ACTIVITY” (Merck Sharp & Dohme LLC, priority 2023, published 2024)
# pIC50, pKd: −log10 of the molar value. Numbered stars: 1 amine (or outer) side, 2 acyl side, 3 side chain; on linkers, the order of the positions; unused ones are H or OH. Bridge positions count the residues as written; N and C are the ends. Square brackets hold non-standard residues; d marks the D form. Peptide text beside a SMILES is read from it. Trp(βS-Me,7-OMe) = COc1cccc2c([C@H](C)[C@H](N)C(=O)O)c[nH]c12; dPro(trans-4-NMe2) = CN(C)[C@@H]1CN[C@@H](C(=O)O)C1; Trp(7-CN) = N#Cc1cccc2c(C[C@H](N)C(=O)O)c[nH]c12; Trp(7-Cl) = N[C@@H](Cc1c[nH]c2c(Cl)cccc12)C(=O)O; Phe(3-CONH2) = NC(=O)c1cccc(C[C@H](N)C(=O)O)c1; Phe(4-CONH2) = NC(=O)c1ccc(C[C@H](N)C(=O)O)cc1; Phe(4-COOH) = N[C@@H](Cc1ccc(C(=O)O)cc1)C(=O)O; X30 = O=C([C@@H](N[*:1])[C@H](O)c1ccncc1)[*:2]; 4Pal(3S-Me) = C[C@@H](c1ccncc1)[C@H](N)C(=O)O; Trp(7-aza) = N[C@@H](Cc1c[nH]c2ncccc12)C(=O)O; Phe(4-CH2NH2) = NCc1ccc(C[C@H](N)C(=O)O)cc1; Ala(4-thiazolyl) = N[C@@H](Cc1cscn1)C(=O)O; dPro(trans-4-F) = O=C(O)[C@H]1C[C@H](F)CN1; dPro(4S-NH2) = N[C@@H]1CN[C@@H](C(=O)O)C1; Pip(5R-OH) = O=C(O)[C@@H]1CC[C@@H](O)CN1; αMeW = C[C@](N)(Cc1c[nH]c2ccccc12)C(=O)O; X1 = O=C([C@@H]1CC[C@H](N[*:1])C1)[*:2]; Pip(4-aza) = O=C(O)[C@@H]1CNCCN1; 4Pal = N[C@@H](Cc1ccncc1)C(=O)O; NMeE = CN[C@@H](CCC(=O)O)C(=O)O; dHyp = O=C(O)[C@H]1C[C@H](O)CN1; Ahp(2) = CCCCC[C@H](N)C(=O)O; Dap(Me) = CNC[C@H](N)C(=O)O; αMeS = C[C@](N)(CO)C(=O)O; Nle = CCCC[C@H](N)C(=O)O; Sar = CNCC(=O)O
# Biological target: T1, human soluble TNFR1 (sTNFR1) (Homo sapiens, UniProt P19438)
# T1 construct: made in house; host or cells: Sf21 (baculovirus)
# T1 sequence (P19438 with tags, fused parts or gaps): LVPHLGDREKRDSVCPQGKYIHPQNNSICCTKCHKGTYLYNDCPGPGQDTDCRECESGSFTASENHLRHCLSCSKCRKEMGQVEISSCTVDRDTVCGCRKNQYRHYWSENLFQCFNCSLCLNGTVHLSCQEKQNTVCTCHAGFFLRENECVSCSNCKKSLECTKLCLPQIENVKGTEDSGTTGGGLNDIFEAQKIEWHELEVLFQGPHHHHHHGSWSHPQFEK
# Test: Human sTNFR1-peptide displacement assay (LanthaScreen Eu TR-FRET binding assay)
# Procedure, shortened: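 Readout is the 665/615 nm TR-FRET ratio (Eu anti-His donor, streptavidin-Alexa647 acceptor), normalized to DMSO and saturating displacer, fit by Morrison-based five-parameter logistic for Kd^app. His-tagged sTNFR1 (1-211) prebound to 100 nM biotinylated peptide SEQ ID NO.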
Structure (SMILES),pIC50,pKd
"CCCC[C@@H]1NC(=O)CSC[C@@H](C(N)=O)NC(=O)[C@H]([C@@H](C)c2c[nH]c3c(OC)cccc23)NC(=O)CN(C)C(=O)[C@H](Cc2ccc(O)cc2)NC(=O)[C@H](Cc2ccc(C(=O)O)cc2)NC(=O)[C@](C)(CO)NC(=O)[C@H](Cc2c[nH]c3c(Cl)cccc23)NC(=O)[C@H](Cc2ccc(OC)cc2)NC(=O)[C@H](CC(N)=O)NC(=O)[C@H](CCC(=O)O)N(C)C(=O)[C@H](Cc2c[nH]c3ccccc23)NC(=O)[C@@H]2CNCCN2C(=O)[C@H](Cc2ccncc2)NC1=O [SEQ ID NO. 218] ({CH2CO}-[Nle][4Pal][Pip(4-aza)]W[NMeE]NY(Me)[Trp(7-Cl)][αMeS][Phe(4-COOH)]Y[Sar][Trp(βS-Me,7-OMe)]C-NH2; thioether N-14)",8.94,–
CN1CC(=O)N[C@@H](Cc2c[nH]c3ccccc23)C(=O)N[C@H](C(N)=O)CSCC(=O)N[C@@H](CCCCN)C(=O)N[C@@H](Cc2ccc(O)cc2)C(=O)N[C@@H](CO)C(=O)N[C@@H](Cc2c[nH]c3ccccc23)C(=O)N2CCC[C@@H]2C(=O)N[C@@H](CCC(N)=O)C(=O)N[C@@H](Cc2ccncc2)C(=O)N[C@@H](Cc2c[nH]c3ccccc23)C(=O)N[C@@](C)(CO)C(=O)N[C@@H](Cc2ccc(C(=O)O)cc2)C(=O)N[C@@H](Cc2ccc(O)cc2)C1=O [SEQ ID NO. 242] ({CH2CO}-KYSW[dP]Q[4Pal]W[αMeS][Phe(4-COOH)]Y[Sar]WC-NH2; thioether N-14),8.92,–
"CCCCC[C@@H]1NC(=O)[C@@H]2CC[C@@H](C2)NC(=O)[C@H]([C@@H](C)c2c[nH]c3c(OC)cccc23)NC(=O)CN(C)C(=O)[C@H](Cc2cccc(C(N)=O)c2)NC(=O)[C@H](Cc2ccc(C(N)=O)cc2)NC(=O)[C@](C)(CO)NC(=O)[C@H](Cc2c[nH]c3c(C#N)cccc23)NC(=O)[C@H](Cc2ccc(C(=O)O)cc2)NC(=O)[C@H](CC(N)=O)NC(=O)[C@H]2C[C@H](N(C)C)CN2C(=O)[C@H](Cc2c[nH]c3ccccc23)NC(=O)[C@@H]2CC[C@@H](O)CN2C(=O)[C@H](Cc2ccncc2)NC1=O [SEQ ID NO. 128] (cyclo([4Pal][Pip(5R-OH)]W[dPro(trans-4-NMe2)]N[Phe(4-COOH)][Trp(7-CN)][αMeS][Phe(4-CONH2)][Phe(3-CONH2)][Sar][Trp(βS-Me,7-OMe)][X1][Ahp(2)]))",–,10.05
CCCC[C@@H]1NC(=O)CSC[C@@H](C(N)=O)NC(=O)[C@](C)(Cc2c[nH]c3ccccc23)NC(=O)CN(C)C(=O)[C@H](Cc2ccc(O)cc2)NC(=O)[C@H](Cc2ccc(C(=O)O)cc2)NC(=O)[C@](C)(CO)NC(=O)[C@H](Cc2c[nH]c3c(Cl)cccc23)NC(=O)[C@H](Cc2ccncc2)NC(=O)[C@H](CC(N)=O)NC(=O)[C@H](CCC(=O)O)N(C)C(=O)[C@H](Cc2c[nH]c3ncccc23)NC(=O)[C@H](CNC)NC(=O)[C@H](Cc2ccncc2)NC1=O [SEQ ID NO. 235] ({CH2CO}-[Nle][4Pal][Dap(Me)][Trp(7-aza)][NMeE]N[4Pal][Trp(7-Cl)][αMeS][Phe(4-COOH)]Y[Sar][αMeW]C-NH2; thioether N-14),8.72,–
"CCCC[C@@H]1NC(=O)[C@@H]2CC[C@@H](C2)NC(=O)[C@H]([C@@H](C)c2c[nH]c3c(OC)cccc23)NC(=O)CN(C)C(=O)[C@H](Cc2ccc(C(N)=O)cc2)NC(=O)[C@H](Cc2ccc(C(N)=O)cc2)NC(=O)[C@](C)(CO)NC(=O)[C@H](Cc2c[nH]c3c(C#N)cccc23)NC(=O)[C@H](Cc2ccc(C(=O)O)cc2)NC(=O)[C@H](CC(N)=O)NC(=O)[C@H]2C[C@H](OC)CN2C(=O)[C@H](Cc2c[nH]c3ccccc23)NC(=O)[C@@H]2CC[C@@H](O)CN2C(=O)[C@H](Cc2ccncc2)NC1=O [SEQ ID NO. 14] (cyclo([4Pal][Pip(5R-OH)]W[dHyp](Me)N[Phe(4-COOH)][Trp(7-CN)][αMeS][Phe(4-CONH2)][Phe(4-CONH2)][Sar][Trp(βS-Me,7-OMe)][X1][Nle]))",–,10.52
"CCCC[C@@H]1NC(=O)[C@@H]2CC[C@@H](C2)NC(=O)[C@H]([C@@H](C)c2c[nH]c3c(OC)cccc23)NC(=O)CN(C)C(=O)[C@H](Cc2ccc(O)cc2)NC(=O)[C@H](Cc2ccc(C(N)=O)cc2)NC(=O)[C@](C)(CO)NC(=O)[C@H](Cc2c[nH]c3c(Cl)cccc23)NC(=O)[C@H](Cc2ccncc2)NC(=O)[C@H](CC(N)=O)NC(=O)[C@H]2C[C@H](N)CN2C(=O)[C@H](Cc2c[nH]c3ccccc23)NC(=O)[C@@H]2CC[C@@H](O)CN2C(=O)[C@H](Cc2ccncc2)NC1=O [SEQ ID NO. 144] (cyclo([4Pal][Trp(7-Cl)][αMeS][Phe(4-CONH2)]Y[Sar][Trp(βS-Me,7-OMe)][X1][Nle][4Pal][Pip(5R-OH)]W[dPro(4S-NH2)]N))",–,10.15
"CCCC[C@@H]1NC(=O)CSC[C@@H](C(N)=O)NC(=O)[C@H]([C@@H](C)c2c[nH]c3c(OC)cccc23)NC(=O)CN(C)C(=O)[C@H](Cc2ccc(O)cc2)NC(=O)[C@H](Cc2ccc(C(=O)O)cc2)NC(=O)[C@](C)(CO)NC(=O)[C@H](Cc2c[nH]c3c(Cl)cccc23)NC(=O)[C@H](Cc2ccncc2)NC(=O)[C@H](CC(N)=O)NC(=O)[C@H](CCC(=O)O)N(C)C(=O)[C@H](Cc2c[nH]c3ncccc23)NC(=O)[C@H](CO)NC(=O)[C@H]([C@@H](C)c2ccncc2)NC1=O [SEQ ID NO. 180] ({CH2CO}-[Nle][4Pal(3S-Me)]S[Trp(7-aza)][NMeE]N[4Pal][Trp(7-Cl)][αMeS][Phe(4-COOH)]Y[Sar][Trp(βS-Me,7-OMe)]C-NH2; thioether N-14)",9.52,9.74
CCCC[C@@H]1NC(=O)CSC[C@@H](C(N)=O)NC(=O)[C@](C)(Cc2c[nH]c3ccccc23)NC(=O)CN(C)C(=O)[C@H](Cc2ccc(O)cc2)NC(=O)[C@H](Cc2cccc(C(N)=O)c2)NC(=O)[C@](C)(CO)NC(=O)[C@H](Cc2c[nH]c3c(Cl)cccc23)NC(=O)[C@H](Cc2ccncc2)NC(=O)[C@H](CC(N)=O)NC(=O)[C@H](CCC(=O)O)N(C)C(=O)[C@H](Cc2c[nH]c3ncccc23)NC(=O)[C@H](CO)NC(=O)[C@H](Cc2ccc(CN)cc2)NC1=O [SEQ ID NO. 205] ({CH2CO}-[Nle][Phe(4-CH2NH2)]S[Trp(7-aza)][NMeE]N[4Pal][Trp(7-Cl)][αMeS][Phe(3-CONH2)]Y[Sar][αMeW]C-NH2; thioether N-14),–,9.00
"CCCC[C@@H]1NC(=O)CSC[C@@H](C(N)=O)NC(=O)[C@H]([C@@H](C)c2c[nH]c3c(OC)cccc23)NC(=O)CN(C)C(=O)[C@H](Cc2ccc(O)cc2)NC(=O)[C@H](Cc2ccc(C(=O)O)cc2)NC(=O)[C@](C)(CO)NC(=O)[C@H](Cc2c[nH]c3c(Cl)cccc23)NC(=O)[C@H](Cc2ccncc2)NC(=O)[C@H](CC(N)=O)NC(=O)[C@H](CCC(=O)O)N(C)C(=O)[C@H](Cc2c[nH]c3ncccc23)NC(=O)[C@H](Cc2cscn2)NC(=O)[C@H](Cc2ccncc2)NC1=O [SEQ ID NO. 253] ({CH2CO}-[Nle][4Pal][Ala(4-thiazolyl)][Trp(7-aza)][NMeE]N[4Pal][Trp(7-Cl)][αMeS][Phe(4-COOH)]Y[Sar][Trp(βS-Me,7-OMe)]C-NH2; thioether N-14)",9.11,8.99
"CCCC[C@@H]1NC(=O)[C@@H]2CC[C@@H](C2)NC(=O)[C@H]([C@@H](C)c2c[nH]c3c(OC)cccc23)NC(=O)CN(C)C(=O)[C@H](Cc2ccc(C(N)=O)cc2)NC(=O)[C@H](Cc2ccc(C(N)=O)cc2)NC(=O)[C@](C)(CO)NC(=O)[C@H](Cc2c[nH]c3c(C#N)cccc23)NC(=O)[C@H](Cc2ccc(C(=O)O)cc2)NC(=O)[C@H](CC(N)=O)NC(=O)[C@H]2C[C@H](F)CN2C(=O)[C@H](Cc2c[nH]c3ccccc23)NC(=O)[C@@H]2CC[C@@H](O)CN2C(=O)[C@H](Cc2ccncc2)NC1=O [SEQ ID NO. 114] (cyclo([4Pal][Pip(5R-OH)]W[dPro(trans-4-F)]N[Phe(4-COOH)][Trp(7-CN)][αMeS][Phe(4-CONH2)][Phe(4-CONH2)][Sar][Trp(βS-Me,7-OMe)][X1][Nle]))",–,10.70
"CCCC[C@@H]1NC(=O)[C@@H]2CC[C@@H](C2)NC(=O)[C@H]([C@@H](C)c2c[nH]c3c(OC)cccc23)NC(=O)CN(C)C(=O)[C@H](Cc2ccc(C(N)=O)cc2)NC(=O)[C@H](Cc2ccc(C(N)=O)cc2)NC(=O)[C@](C)(CO)NC(=O)[C@H](Cc2c[nH]c3c(Cl)cccc23)NC(=O)[C@H](Cc2ccncc2)NC(=O)[C@H](CC(N)=O)NC(=O)[C@H](CCC(=O)O)N(C)C(=O)[C@H](Cc2c[nH]c3ccccc23)NC(=O)[C@@H]2CC[C@@H](O)CN2C(=O)[C@H](Cc2ccncc2)NC1=O [SEQ ID NO. 229] (cyclo([4Pal][Trp(7-Cl)][αMeS][Phe(4-CONH2)][Phe(4-CONH2)][Sar][Trp(βS-Me,7-OMe)][X1][Nle][4Pal][Pip(5R-OH)]W[NMeE]N))",–,10.00
"CCCCC[C@@H]1NC(=O)[C@@H]2CC[C@@H](C2)NC(=O)[C@H]([C@@H](C)c2c[nH]c3c(OC)cccc23)NC(=O)CN(C)C(=O)[C@H](Cc2ccc(C(N)=O)cc2)NC(=O)[C@H](Cc2ccc(C(N)=O)cc2)NC(=O)[C@](C)(CO)NC(=O)[C@H](Cc2c[nH]c3c(C#N)cccc23)NC(=O)[C@H](Cc2ccc(C(=O)O)cc2)NC(=O)[C@H](CC(N)=O)NC(=O)[C@H]2C[C@H](O)CN2C(=O)[C@H](Cc2c[nH]c3ccccc23)NC(=O)[C@H](CO)NC(=O)[C@H]([C@H](O)c2ccncc2)NC1=O [SEQ ID NO. 16] (cyclo([Ahp(2)][X30]SW[dHyp]N[Phe(4-COOH)][Trp(7-CN)][αMeS][Phe(4-CONH2)][Phe(4-CONH2)][Sar][Trp(βS-Me,7-OMe)][X1]))",–,9.96
